Molecules are shown by their SMILES. pIC50: −log10 of the molar value.

The assay concerns HeLa cells. As to the kind of experiment: Measurement of the cell cycle inhibition in HeLa cells. The note with it: HeLa B cells, 20 h incubation with compound; FACS ratio G0/G1 to G2/M vs DMSO; concentration at which 50% of cells are in cell cycle arrest. Format: cell-based. The procedure:
Measurement of the Cell Cycle Inhibition in HeLa Cells—Test Procedure:
HeLa B cells are grown in DMEM (Life Technologies Cat No 21969-035) supplemented with 10% Fetal Calf Serum (FCS, Life Technologies Cat No 10270-106) in 180 cm^2 Flasks at 37° C., 92% humidity and 7% CO2.
Cells are seeded at 5×10^4 cells per well in a 24-well plate. Twenty hours later the compounds are added such that the final concentration is 1×10^−6, 3.3×10^−7, 1.1×10^−7, 3.7×10^−8, 1.2×10^−8 and 1×10^−9 M in a final volume of 500 μl. DMSO alone is added to 6 wells as a control. Cells are incubated with the compounds as above for 20 h. Then cells are observed under the microscope to check for cell death, and the 24-well plate is then centrifuged at 1200 rpm for 5 min at 20° C., acceleration position 7 and break position 5 (Eppendorf centrifuge 5804R).
The supernatant is removed and the cells lysed with 0.5 ml RNase Buffer (10 mM NaCitrate, 0.1% Nonidet NP40, 50 μg/ml RNase, 10 μg/ml Propidium iodide) per well. The plates are then incubated for at least 30 min in the dark at RT and the samples then transferred to FACS tubes. Samples are measured in a FACS machine (Beckton Dickinson) at the following settings:
Instrument Settings of the FACS Calibur:
The ratio of cells in G0/G1-phase to G2/M phase is calculated and compared to the value for the controls (DMSO) only. Results are given in table 2 as the IC50 value calculated from the concentration curve plotted against the cell cycle ratio and indicate the compound concentration at which 50% of cells are in cell cycle arrest after treatment with the compound.
Take `Cc1nc(-n2ccnn2)nc(N2CCC(C)CC2)c1-c1c(F)cc(F)cc1F` [Example 90]: the pIC50 was 7.57.

In the case of `C[C@H](Nc1nc(N(C)N)nc(Cl)c1-c1c(F)cc(F)cc1F)C(F)(F)F` [Example 9], the pIC50 was 7.89.

For `C=CCN(CC=C)c1nc(-n2ccc(N)n2)nc(Cl)c1-c1ccc(F)cc1Cl` [Example 135], the pIC50 is 7.74.

Consider `CCC(C)Nc1nc(-n2ccnn2)nc(Cl)c1-c1c(F)cc(F)cc1F` (stereo not drawn) [Example 91], for which the pIC50 was 7.70.

With `CC(C)Nc1nc(-n2ccc(C(C)C)n2)nc(Cl)c1-c1c(F)cc(F)cc1F` [Example 22], the negative-log IC50 (pIC50) was 7.49.

For `CC[C@H](C)Nc1nc(C(N)=NO)nc(Cl)c1-c1ccc(F)cc1Cl` [Example 168], the pIC50 is 7.44.

For the molecule `CC(CO)Nc1nc(-n2cc(Br)cn2)nc(Cl)c1-c1c(F)cc(F)cc1F` (stereo not drawn) [Example 124], the pIC50 is 7.35.

`CON=C(N)c1nc(Cl)c(-c2ccc(F)cc2Cl)c(N[C@@H](C)C(C)C)n1` [Example 218]: the pIC50 is 7.54.

As for `C[C@H](Nc1nc(C(N)=O)nc(Cl)c1-c1c(F)cccc1F)C(F)(F)F` [Example 180], the pIC50 is 7.39.

In the case of `CC1CCN(c2nc(-n3cncn3)nc(Cl)c2-c2c(F)cccc2F)CC1` [Example 116], the pIC50 is 7.38.

On to `CC(C)[C@@H](C)Nc1nc(-n2cncn2)nc(Cl)c1-c1c(F)cccc1Cl` [Example 48], for which the pIC50 is 7.89.

Turning to `CC(C)[C@H](C)Nc1nc(C(N)=NO)nc(Cl)c1-c1ccc(F)cc1Cl` [Example 193], the pIC50 is 8.05.

For `C=CCCN(C)c1nc(-n2cc(C)cn2)nc(Cl)c1-c1ccc(F)cc1Cl` [Example 133], the pIC50 was 7.39.

Turning to `Cc1nc(C)n(-c2nc(Cl)c(-c3c(F)cc(F)cc3F)c(N3CCCCC3)n2)n1` [Example 54], the pIC50 is 7.64.

With `C=CCN(C)c1nc(-n2cccn2)nc(Cl)c1-c1c(F)cc(F)cc1F` [Example 142], the pIC50 was 7.41.

Turning to `Cc1cn(-c2nc(Cl)c(-c3c(F)cc(F)cc3F)c(NC(C)C(F)(F)F)n2)nc1-c1ccco1` (stereo not drawn) [Example 95], the pIC50 is 7.41.

Take `Cc1ccc(-c2c(Cl)nc(-n3cncn3)nc2N[C@@H](C)C(C)C)c(F)c1` [Example 100]: the pIC50 was 7.40.

As for `COc1ccc(-c2c(Cl)nc(C(N)=NO)nc2N[C@@H](C)C(C)C)c(Cl)c1` [Example 185], the pIC50 was 7.52.

On to `CC(C)c1ccn(-c2nc(Cl)c(-c3c(F)cc(F)cc3F)c(N[C@@H](C)C(F)(F)F)n2)n1` [Example 5], for which the pIC50 is 8.34.

Take `CC(C)[C@H](C)Nc1nc(C(N)=NO)nc(Cl)c1-c1c(F)cccc1F` [Example 195]: the pIC50 was 7.70.

In the case of `COc1cc(F)c(-c2c(Cl)nc(C(N)=S)nc2N[C@@H](C)C(F)(F)F)c(F)c1` [Example 203], the pIC50 was 7.33.

Turning to `COc1c(C)cnn1-c1nc(Cl)c(-c2c(F)cc(F)cc2F)c(N[C@@H](C)C(F)(F)F)n1` [Example 154], the negative logarithm of the IC50 (pIC50) was 7.59.

`C[C@H](Nc1nc(-n2cccn2)nc(Cl)c1-c1c(F)cc(F)cc1F)C(F)(F)F` [Example 1]: the pIC50 was 8.32.

For `COc1cc(F)c(-c2c(Cl)nc(C(N)=NO)nc2N[C@@H](C)C(F)(F)F)c(F)c1` [Example 181], the pIC50 is 8.22.

For `CC(C)[C@H](C)Nc1nc(C(N)=NO)nc(Cl)c1-c1ccc([N+](=O)[O-])cc1Cl` [Example 192], the pIC50 was 7.52.

On to `CC1CCN(c2nc(-n3cncn3)nc(Cl)c2-c2c(F)cc(F)cc2F)CC1` [Example 28], for which the pIC50 is 7.77.

Regarding `COc1cc(F)c(-c2c(Cl)nc(-c3ccccn3)nc2NC2CCCC2)c(F)c1` [Example 64], the pIC50 is 7.68.

As for `Fc1cc(F)c(-c2c(Cl)nc(-n3ccnn3)nc2N2CC=CCC2)c(F)c1` [Example 45], the pIC50 was 7.77.

With `Cc1cccc(-c2nc(Cl)c(-c3c(F)cc(F)cc3F)c(NC(C)C)n2)n1` [Example 11], the pIC50 is 7.38.

With `Cc1nc(C)n(-c2nc(Cl)c(-c3c(F)cc(F)cc3F)c(N3CC=CCC3)n2)n1` [Example 59], the pIC50 is 7.37.

Regarding `Cc1ccn(-c2nc(Cl)c(-c3c(F)cccc3Cl)c(NC(C)C)n2)n1` [Example 20], the pIC50 is 7.41.

Consider `Fc1cc(F)c(-c2c(Cl)nc(-n3cccn3)nc2N2CC=CCC2)c(F)c1` [Example 41], for which the pIC50 is 7.42.

Regarding `CON=C(N)c1nc(Cl)c(-c2cc(F)ccc2Cl)c(N[C@@H](C)C(C)C)n1` [Example 202], the pIC50 was 7.42.

As for `CC1CCN(c2nc(-n3cccn3)nc(Cl)c2-c2c(F)cccc2Cl)CC1` [Example 66], the pIC50 is 7.43.

With `O=C1CCCN1c1nc(Cl)c(-c2c(F)cc(F)cc2F)c(NCC(F)(F)F)n1` [Example 210], the pIC50 was 7.41.

Take `CC1CCCCN1c1nc(-n2ccnn2)nc(Cl)c1-c1c(F)cccc1F` (stereo not drawn) [Example 126]: the pIC50 was 7.42.

Consider `COc1cc(F)c(-c2c(Cl)nc(C(N)=O)nc2N2CCC(C)CC2)c(F)c1` [Example 188], for which the pIC50 is 7.52.

Consider `CC(C)[C@H](C)Nc1nc(-n2cccn2)nc(Cl)c1-c1c(F)cc(F)cc1F` [Example 138], for which the negative logarithm of the IC50 (pIC50) is 7.64.

With `C[C@H](Nc1nc(-n2cc(Cl)cn2)nc(Cl)c1-c1c(F)cc(F)cc1F)C(F)(F)F` [Example 35], the pIC50 was 7.44.

`Cc1nc(-c2nc(Cl)c(-c3c(F)cc(F)cc3F)c(NC3CCCC3)n2)cs1` [Example 72]: the pIC50 was 7.34.

Take `CC(C)[C@@H](C)Nc1nc(-n2cccn2)nc(Cl)c1-c1c(F)cccc1Cl` [Example 46]: the pIC50 is 7.42.

Take `C[C@H](Nc1nc(-n2cccn2)nc(F)c1-c1c(F)cc(F)cc1F)C(F)(F)F` [Example 167]: the pIC50 is 7.70.

Consider `C=C(C)CNc1nc(-n2ccc(N)n2)nc(Cl)c1-c1c(F)cc(F)cc1F` [Example 122], for which the negative logarithm of the IC50 (pIC50) was 7.34.

In the case of `C[C@H](Nc1nc(-n2cccn2)nc(Br)c1-c1c(F)cc(F)cc1F)C(F)(F)F` [Example 207], the pIC50 was 7.82.

Regarding `C[C@H](Nc1nc(-n2ccc(Br)n2)nc(Cl)c1-c1c(F)cc(F)cc1F)C(F)(F)F` [Example 38], the negative-log IC50 (pIC50) is 7.62.

With `COc1ccc(-c2c(Cl)nc(C(N)=O)nc2N[C@@H](C)C(C)C)c(Cl)c1` [Example 183], the pIC50 was 7.28.

As to `C[C@H](Nc1nc(-c2cnccn2)nc(Cl)c1-c1c(F)cc(F)cc1F)C(F)(F)F` [Example 27], the pIC50 was 8.46.

In the case of `CC(C)Nc1nc(-n2cc(Br)cn2)nc(Cl)c1-c1c(F)cc(F)cc1F` [Example 17], the pIC50 is 7.35.

Turning to `CC1CCCN1c1nc(-n2cncn2)nc(Cl)c1-c1c(F)cccc1Cl` (stereo not drawn) [Example 98], the negative-log IC50 (pIC50) is 7.34.

As to `Cc1nn(-c2nc(Cl)c(-c3c(F)cc(F)cc3F)c(N[C@@H](C)C(F)(F)F)n2)c(C)c1Cl` [Example 3], the pIC50 is 7.51.

Turning to `CC1CCCN1c1nc(-n2cccn2)nc(Cl)c1-c1c(F)cc(F)cc1F` (stereo not drawn) [Example 74], the pIC50 was 7.89.

Regarding `CON=C(N)c1nc(Cl)c(-c2c(F)cc(OC)cc2F)c(N[C@@H](C)C(F)(F)F)n1` [Example 182], the pIC50 is 7.96.

Turning to `Fc1cc(F)c(-c2c(Cl)nc(-n3cncn3)nc2N2CCCCC2)c(F)c1` [Example 52], the pIC50 is 7.66.

Turning to `C[C@H](Nc1nc(-n2ccnn2)nc(Cl)c1-c1c(F)cc(F)cc1F)C(F)(F)F` [Example 205], the pIC50 was 8.08.

`CCC(C)Nc1nc(-n2cncn2)nc(Cl)c1-c1c(C)cccc1F` (stereo not drawn) [Example 110]: the negative logarithm of the IC50 (pIC50) is 7.60.

In the case of `CC(C)C(C)Nc1nc(-c2ccccn2)nc(Cl)c1-c1c(F)cccc1F` (stereo not drawn) [Example 82], the pIC50 is 7.52.

With `Cc1ccc(-c2c(Cl)nc(-n3cc(Cl)cn3)nc2NCC(F)(F)F)c(F)c1` [Example 150], the pIC50 is 7.30.

`C=CCCN(C)c1nc(-n2ccc(N)n2)nc(Cl)c1-c1c(F)cccc1Cl` [Example 131]: the pIC50 is 7.32.

Regarding `Cc1nc(-c2nc(Cl)c(-c3c(F)cc(F)cc3F)c(N[C@H](C)C(C)C)n2)cs1` [Example 70], the pIC50 was 7.46.

On to `CC1CCCCN1c1nc(-n2cccn2)nc(Br)c1-c1c(F)cc(F)cc1F` (stereo not drawn) [Example 161], for which the pIC50 is 7.30.

On to `COc1cc(F)c(-c2c(Cl)nc(-n3cnc([N+](=O)[O-])n3)nc2N2CCC(C)CC2)c(F)c1` [Example 86], for which the pIC50 was 7.62.

Turning to `COc1ccc(-c2c(Cl)nc(C(C)=NO)nc2N[C@@H](C)C(C)C)c(Cl)c1` [Example 200], the pIC50 was 7.33.

For `CC1CCN(c2nc(C(N)=NO)nc(Cl)c2-c2c(F)cccc2F)CC1` [Example 194], the pIC50 was 7.68.

For the molecule `CCCNc1nc(-n2cccn2)nc(Cl)c1-c1ccc(C)cc1F` [Example 103], the pIC50 was 7.41.

`Cc1ccc(-c2c(Cl)nc(-n3cccn3)nc2NCC(F)(F)F)c(F)c1` [Example 108]: the pIC50 is 7.80.

Take `CC(Nc1nc(-n2ccc(N)n2)nc(Cl)c1-c1c(F)cc(F)cc1F)C(F)(F)F` (stereo not drawn) [Example 57]: the pIC50 is 8.24.

Usually pIC50 stands for the negative decadic logarithm of the IC50, by convention in mol/L.

The record behind these values is patent US20080146593A1, “Substituted 5-Phenyl Pyrimidines I In Therapy” (Basf Aktiengesellschaft, priority 2005, published 2008).
